These results are taken from patent US7271158B2, “Treatment of rumen acidosis with α-amylase inhibitors” (Pfizer Inc., priority 2000, dated 2007).

The test system of one assay is E. coli. Briefly: Minimum inhibitory concentrations in aerobes (agar dilution). It is filed as cell-based. Particulars: Escherichia coli. A general note: In agar dilution, organisms are placed on agar that contains the substance at set levels.
The subject of assay [1] is chronic rumen acidosis induced in fistulated cattle. Description: In vivo testing in fistulated cattle (induced chronic rumen acidosis). Also noted: species or system Hereford×Friesian steers. Particulars: 4.0 g/trt through fistula. The source says:
In Vivo Testing in Fistulated Cattle Objective: To determine the effect of the agent for testing, in this case acarbose, on chronic rumen acidosis induced in fistulated cattle. A rumen pH profile representative of chronic acidosis was induced by stepwise increase in the level of concentrate feeding of a specified diet and a reduction in the roughage offered. This was followed by treatment of each animal with acarbose, administered via a permanent rumen fistula, to assess its ability to normalise rumen pH. Experimental Animals: Six fistulated Hereford×Friesian steers, weighing 170-230 kgs (supplied by […] Calves Ltd. […], Ceredigion) Treatment: Glucobay® 100. Acarbose 100 mgs per tablet. Management: The cattle were fed GH651 cattle high cereal beef pellets (variable amount) with barley straw (variable amount) divided over two equal feeds, given at around 08.00 hr and 14.30 hr each day. Precise feeding times were recorded. Water was available ad-lib. Cattle were individually housed in pens (9 square meters per pen) in a building environmentally controlled to 16° C. [table] While chronic acidosis was being induced, manual pH measurements were taken approximately 5 and 8 hours post-morning feed. Rumen fluid samples were taken for VFA and lactate analysis. […] First Sense Recorder). […] Rumen fluid samples (10 ml) were taken twice daily for measurement of VFA levels, molar ratios and lactate levels. These were collected (by manually removing a sample of rumen content with a small stainless […], filtering and transferring to a 10 ml polypropylene vial) just before acarbose was added to the rumen at both dosing times. The pH probes were removed for cleaning and recalibration immediately pre-morning feed. Results: The daily pH curves were used to calculate the period that rumen pH was below pH 5.5, and therefore indicative of chronic acidosis.

Assay [2] concerns lactating cows in which chronic acidosis had been induced. Briefly: Efficacy of acarbose in lactating dairy cattle (induced chronic acidosis). It is filed as in vivo, Holstein/Friesian cows. The source says: Efficacy of Acarbose in Lactating Dairy Cattle The study measured the effect of acarbose on rumen pH, milk yield and milk composition in lactating cows in which chronic acidosis had been induced by offering a highly fermentable diet. The study included measurement of rate of adaptation to the introduction and removal of acarbose. Experimental animals were six lactating multiparous Holstein/Friesian cows between 5 and 11 years of age and 500-750 kg, with permanent rumen cannulas. The animals started the experiment in early lactation, but not before peak lactation, to allow greater experimental sensitivity. The principal measurements in this study were pH in the ventral sac of the rumen, milk yield and milk composition. DESIGN: Animals enrolled into the study received test article for 21 consecutive days from the start time points described below. [table] Masking/Bias-Reducing Methods: Six lactating multiparous Holstein/Friesian cows were enrolled on to the study on Day-1. Animals were paired based on their calving date (cows with similar dates paired together). Within each pair, one animal received […] and the other […]. The treatment was assigned at random. […] The mean intake over the last 5 days of the preliminary period was calculated and this mean amount was offered to each animal throughout the trial. […] Fresh weight of TMR offered and refused was recorded daily for each animal. During non-measurement weeks ([…] period and adaptation weeks 1 and 2 in each experimental period), dry matter (DM) of main forage components (grass and maize […] determined approximately weekly (or more frequently if it appears necessary from visual assessment of the silage). For measurement weeks (i.e. week 3 in each experimental period), the DM of the TMR were measured daily for the last 5 days while a bulk of each of the individual TMR components (grass silage, maize silage, concentrate mix, ground wheat) were prepared from the same 5 days for subsequent diet analysis (i.e. one sample of each main feed per period). […]

For a further assay, the system named is E. faecium. Briefly: Minimum inhibitory concentrations in aerobes (agar dilution).

With `CC1OC(OC2C(CO)OC(OC3C(CO)OC(O)C(O)C3O)C(O)C2O)C(O)C(O)C1NC1C=C(CO)C(O)C(O)C1O` (stereo not drawn) [Acarbose, acarbose], the MIC (as a rule, the lowest concentration found to suppress growth) in the assay with E. coli (ATCC10418, E. coli ATCC 10418) is > 128 µg/mL; in the assay on E. coli (E. coli E517), > 128 µg/mL; in the assay with E. faecium (E. faecium 1.1.6) it was >128 µg/mL; against E. faecium (E. faecium 1.2.4), >128 µg/mL; in the assay on E. faecium (E. faecium 1.2.6), >128 µg/mL; against E. faecium (E. faecium 3.1), >128 µg/mL. Also, the minimal inhibitory concentration (MIC) against E. faecium (E. faecium 4.5) is >128 µg/mL; against E. faecium (E. faecium 5.4), >128 µg/mL; against E. faecium (E. faecium 10.1), >128 µg/mL; in the assay with E. faecium (E. faecium 28.6.7), >128 µg/mL; in the assay with E. faecium (E. faecium 28.7.7) it was >128 µg/mL; in the assay with E. faecium (Enterococcus faecium), > 128 µg/mL. In assay [1] (13:00 samples, treatment vs control phase), the “total VFA concentrations in rumen fluid” value is given as “little difference”. Further, the “VFA concentration in rumen fluid” value in assay [1] (14:00 samples, during the treatment period) was “fell”. In assay [1] (all sampling times, during the treatment period), the “percentage of propionate in rumen fluid” value was “lower”. Besides, the “proportion of fat in the milk” value in assay [2] (treated animals, acarbose 15 g per day (control 32.8 g/L)) is 46.1 g/L. The compound further registered a milk fat in assay [2] (treated animals, acarbose 15 g per day (control average 1033 grams per day)) of 1281 grams per day. In addition, the “average time below pH 5.5 (rumen)” value in assay [2] (treatment periods, acarbose 15 g per day in feed supplement (control periods 4.3 hours)) is on record as 3.4 hours.
